According to patent US4224442A, “7-Ureido acetamido substituted cephalosporin antibiotics” (Eli Lilly and Company, priority 1975, dated 1980):
In brackets after ≈: the same amount, converted by molar mass.

How the values were obtained:
Aerobacter aerogenes = test: Gradient Plate in vitro method, MIC; assay type: cell-based; conditions: Klebsiella aerogenes, read-out: Minimum Inhibitory Concentration
Excerpt: (§1) The antibiotic activity of the cephalosporin compounds of the formula I is illustrated by the data presented in Table I for representative compounds. The values in the table are the minimum inhibitory concentrations (MIC) for the test compounds against the indicated microorganisms. The MIC values were obtained in the Gradient Plate in vitro method for determining antibiotic activity.
(§2) Minimum Inhibitory Concentration (mcg./ml.)

Klebsiella pneumoniae = test: Gradient Plate in vitro method, MIC; assay type: cell-based; conditions: read-out: Minimum Inhibitory Concentration
Excerpt: as §1, §2

Pseudomonas aeruginosa = test: Gradient Plate in vitro method, MIC; assay type: cell-based; conditions: read-out: Minimum Inhibitory Concentration
Excerpt: as §1, §2

Salmonella heidelberg = test: Gradient Plate in vitro method, MIC; assay type: cell-based; conditions: Salmonella enterica, read-out: Minimum Inhibitory Concentration
Excerpt: as §1, §2

Shigella sp. = test: Gradient Plate in vitro method, MIC; assay type: cell-based; conditions: read-out: Minimum Inhibitory Concentration
Excerpt: as §1, §2

Escherichia coli [1] = test: Gradient Plate in vitro method, MIC; assay type: cell-based; conditions: read-out: Minimum Inhibitory Concentration
Excerpt: (§3) The values in the table are the minimum inhibitory concentrations (MIC) for the test compounds against the indicated microorganisms. The MIC values were obtained in the Gradient Plate in vitro method for determining antibiotic activity.

Serratia marcescens = test: Gradient Plate in vitro method, MIC; assay type: cell-based; conditions: read-out: Minimum Inhibitory Concentration
Excerpt: as §3

V32 = test: Gradient Plate in vitro method, MIC; assay type: cell-based, penicillin resistant Staphyloccus; conditions: V32, penicillin resistant Staphylococcus, read-out: Minimum Inhibitory Concentration
Excerpt: as §1, §2
(§4) ^1 Test organisms V41, V32 and V84 are penicillin resistant
(§5) Staphyloccus, X400 is a methicillin resistant Staphylococcus.

V41 = test: Gradient Plate in vitro method, MIC; assay type: cell-based, penicillin resistant Staphyloccus; conditions: V41, penicillin resistant Staphylococcus, read-out: Minimum Inhibitory Concentration
Excerpt: as §1, §2, §4, §5

V84 = test: Gradient Plate in vitro method, MIC; assay type: cell-based, penicillin resistant Staphyloccus; conditions: V84, penicillin resistant Staphylococcus, read-out: Minimum Inhibitory Concentration
Excerpt: as §1, §2, §4, §5

X400 = test: Gradient Plate in vitro method, MIC; assay type: cell-based; conditions: X400, methicillin resistant Staphylococcus, read-out: Minimum Inhibitory Concentration
Excerpt: as §1, §2, §4, §5

Staphylococcus aureus = test: standard gear agar dilution method, MIC; assay type: cell-based
Excerpt: In the standard gear agar dilution method, the MIC values for the above test compounds A through E against Staphylococcus aureus were as follows: A, 2; B, 1; C, 0.5; D, 2; and E, 0.5 mcg./m1.

Escherichia coli [2] = test: in vivo effective dose in experimental infections in mice; conditions: ip, E. coli infection in mice
Excerpt: (§6) The in vivo effective dose […] in mg./kg. for representative antibiotics of the formula I has been determined in experimental infections in mice. Table II lists the ED50 dose vs. Streptococcus pyogenes and Escherichia coli infections. In the table, the antibiotics are identified with the R", R', and R1 -R3 terms of Formula I. |Test Compound ED50 (mg/kg × 2) i.p.

Streptococcus pyogenes = test: as above; conditions: ip, S. pyogenes infection in mice
Excerpt: as §6

[3] = Electrometric titration in 66 percent DMF; assay type: physicochemical; conditions: 66% dmf

| Compound | MIC (Aerobacter aerogenes) [µg/mL] | MIC (Klebsiella pneumoniae) [µg/mL] | MIC (Pseudomonas aeruginosa) [µg/mL] | MIC (Salmonella heidelberg) [µg/mL] | MIC (Shigella sp.) [µg/mL] | MIC (Escherichia coli [1]) [µg/mL] | MIC (Serratia marcescens) [µg/mL] | MIC (V32) [µg/mL] | MIC (V41) [µg/mL] | MIC (V84) [µg/mL] | MIC (X400) [µg/mL] | MIC (Staphylococcus aureus) [µg/mL] | ED50 (Escherichia coli [2]) [mg/kg] | ED50 (Streptococcus pyogenes) [mg/kg] | pKa ([3]; first of two titratable groups) | pKa ([3]; second of two titratable groups) |
| --- | --- | --- | --- | --- | --- | --- | --- | --- | --- | --- | --- | --- | --- | --- | --- | --- |
| CNC(=O)N(C)C(=O)NC(C(=O)NC1C(=O)N2C(C(=O)O)=C(CSc3nnnn3C)CSC12)c1ccc(O)cc1 (stereo not drawn) [Test Compound A, 7-[α-(3-methylcarbamoyl-3-methyl-1-ureido)-α-(4-hydroxyphenyl)acetamido]-3-(1-methyl-1H-tetrazole-5-ylthiomethyl)-3-cephem-4-carboxylic acid] | 1 (≈ 1.69 µM) | 3.5 (≈ 5.92 µM) | 18 (≈ 30.4 µM) | 1 (≈ 1.69 µM) | 1 (≈ 1.69 µM) | 1 (≈ 1.69 µM) | 8 (≈ 13.5 µM) | 4.8 (≈ 8.11 µM) | 4 (≈ 6.76 µM) | 0.6 (≈ 1.01 µM) | > 20 | 2 (≈ 3.38 µM) | 72 | 0.7 |  |  |
| CNC(=O)NC(=O)NC(C(=O)NC1C(=O)N2C(C(=O)O)=C(CSc3nnc(C)s3)CSC12)c1ccc(O)cc1 (stereo not drawn) [Example 14, 7-[α-(3-methylcarbamoyl-1-ureido)-α-(4-hydroxyphenyl)acetamido]-3-(5-methyl-1,3,4-thiadiazole-2-ylthiomethyl)-3-cephem-4-carboxylic acid] |  |  |  |  |  |  |  |  |  |  |  |  | < 72 | 0.7 |  |  |
| Cn1nnnc1SCC1=C(C(=O)O)N2C(=O)C(NC(=O)C(NC(=O)N3CCNC3=O)c3ccccc3)[C@H]2SC1 (stereo partly drawn) [Test Compound D, 7-[α-(imidazolidine-2-one-1-ylcarbonylamino)-α-phenylacetamido]-3-(1-methyl-1H-tetrazole-5-ylthiomethyl)-3-cephem-4-carboxylic acid] | 12 (≈ 20.9 µM) | 7 (≈ 12.2 µM) | 90 (≈ 157 µM) | 6 (≈ 10.5 µM) | 7 (≈ 12.2 µM) | 12 (≈ 20.9 µM) | 70 (≈ 122 µM) | 7 (≈ 12.2 µM) | 6 (≈ 10.5 µM) | 0.9 (≈ 1.57 µM) | > 20 | 2 (≈ 3.49 µM) |  |  |  |  |
| CNC(=O)N(C)C(=O)NC(C(=O)NC1C(=O)N2C(C(=O)O)=C(CSc3nnnn3C)CSC12)c1cccs1 (stereo not drawn) [Test Compound K, 7-[α-(3-methylcarbamoyl-3-methyl-1-ureido)-α-(2-thienyl)acetamido]-3-(1-methyl-1H-tetrazole-5-ylthiomethyl)-3-cephem-4-carboxylic acid] | 1 (≈ 1.72 µM) | 0.9 (≈ 1.55 µM) | 21.5 (≈ 37 µM) | 10 (≈ 17.2 µM) | 1 (≈ 1.72 µM) | 2.5 (≈ 4.3 µM) | 19.5 (≈ 33.5 µM) | 3 (≈ 5.16 µM) | 3 (≈ 5.16 µM) | 3 (≈ 5.16 µM) | > 20 |  |  |  |  |  |
| CC(=O)OCC1=C(C(=O)O)N2C(=O)C(NC(=O)C(NC(=O)N3CCNC3=O)c3ccccc3)[C@H]2SC1 (stereo partly drawn) [Test Compound E, 7-[α-(imidazolidine-2-one-1-ylcarbonylamino)-α-phenylacetamido]-3-acetoxymethyl-3-cephem-4-carboxylic acid] | 10 (≈ 19.3 µM) | 12 (≈ 23.2 µM) | 24 (≈ 46.4 µM) | 11 (≈ 21.3 µM) | 10 (≈ 19.3 µM) | 18 (≈ 34.8 µM) | 42 (≈ 81.2 µM) | 5 (≈ 9.66 µM) | 2 (≈ 3.86 µM) | 0.4 (≈ 0.773 µM) | > 20 | 0.5 (≈ 0.966 µM) |  |  |  |  |
| CNC(=O)N(C)C(=O)NC(C(=O)NC1C(=O)N2C(C(=O)O)=C(CSc3nnnn3C)CSC12)c1ccccc1 (stereo not drawn) [Test Compound F, 7-[α-(3-methylcarbamoyl-3-methyl-1-ureido)-α-phenylacetamido]-3-(1-methyl-1H-tetrazole-5-ylthiomethyl)-3-cephem-4-carboxylic acid] | 3 (≈ 5.21 µM) | 1 (≈ 1.74 µM) | 22 (≈ 38.2 µM) | 3 (≈ 5.21 µM) | 3 (≈ 5.21 µM) | 4 (≈ 6.95 µM) | 22 (≈ 38.2 µM) | 5 (≈ 8.69 µM) | 5 (≈ 8.69 µM) | 4 (≈ 6.95 µM) | > 20 |  |  |  |  |  |
| CNC(=O)NC(=O)NC(C(=O)NC1C(=O)N2C(C(=O)O)=C(CSc3nnc(C)s3)CSC12)c1ccc(O)cc1 (stereo not drawn) [Test Compound L, Sodium 7-[α-(3-methylcarbamoyl-1-ureido)-α-(4-hydroxyphenyl)acetamido]-3-(5-methyl-1,3,4-thiadiazole-2-ylthiomethyl)3-cephem-4-carboxylate] | 15.5 | 16 | 19.5 | 6.5 | 5.5 | 7.5 | > 200 | 7.5 | 6.5 | 0.6 | > 20 |  |  |  |  |  |
| CNC(=O)N(C)C(=O)NC(C(=O)NC1C(=O)N2C(C(=O)O)=C(CSc3nnc(C)s3)CSC12)c1ccc(O)cc1 (stereo not drawn) [Test Compound B, 7-[α-(3-methylcarbamoyl-3-methyl-1-ureido)-α-(4-hydroxyphenyl)acetamido]-3-(5-methyl-1,3,4-thiadiazole-2-ylthiomethyl)-3-cephem-4-carboxylic acid] | 4 (≈ 6.58 µM) | 4 (≈ 6.58 µM) | 28 (≈ 46.1 µM) | 2 (≈ 3.29 µM) | 3 (≈ 4.94 µM) | 4 (≈ 6.58 µM) | 19 (≈ 31.3 µM) | 10 (≈ 16.5 µM) | 8 (≈ 13.2 µM) | 0.6 (≈ 0.987 µM) | > 20 | 1 (≈ 1.65 µM) |  |  | 4.8 | 12.2 |
| Cn1nnnc1SCC1=C(C(=O)O)N2C(=O)C(NC(=O)C(NC(=O)NC(=O)Nc3ccccc3)c3ccccc3)C2SC1 (stereo not drawn) [Test Compound M, 7-[α-(3-phenylcarbamoyl-1-ureido)-α-phenylacetamido]-3-(1-methyl-1H-tetrazole-5-ylthiomethyl)-3-cephem-4-carboxylic acid] | 15.5 (≈ 24.9 µM) | 0.6 (≈ 0.962 µM) | 19.5 (≈ 31.3 µM) | 7.8 (≈ 12.5 µM) | 4 (≈ 6.41 µM) | 10 (≈ 16 µM) | 24 (≈ 38.5 µM) | 0.5 (≈ 0.802 µM) | 0.6 (≈ 0.962 µM) | 0.5 (≈ 0.802 µM) | 10 (≈ 16 µM) |  |  |  |  |  |
| CNC(=O)N(C)C(=O)NC(C(=O)NC1C(=O)N2C(C(=O)O)=C(COC(C)=O)CSC12)c1ccccc1 (stereo not drawn) [Test Compound C, 7-[α-(3-methylcarbamoyl-3-methyl-1-ureido)-α-phenylacetamido]-3-acetoxymethyl-3-cephem-4-carboxylic acid] | 14 (≈ 26.9 µM) | 14 (≈ 26.9 µM) | 80 (≈ 154 µM) | 13 (≈ 25 µM) | 7 (≈ 13.5 µM) | 11 (≈ 21.2 µM) | 80 (≈ 154 µM) | 1 (≈ 1.92 µM) | 1 (≈ 1.92 µM) | 0.5 (≈ 0.962 µM) | > 20 | 0.5 (≈ 0.962 µM) | < 7.2 | < 7.2 |  |  |
| CNC(=O)NC(=O)NC(C(=O)NC1C(=O)N2C(C(=O)O)=C(CSc3nnnn3C)CSC12)c1cccs1 (stereo not drawn) [Test Compound I, 7-[α-(3-methylcarbamoyl-1-ureido)-α-(2-thienyl)-acetamido]-3-(1-methyl-1H-tetrazole-5-ylthiomethyl)-3-cephem-4-carboxylic acid] | 4.3 (≈ 7.58 µM) | 6.8 (≈ 12 µM) | 16 (≈ 28.2 µM) | 4.5 (≈ 7.93 µM) | 3 (≈ 5.29 µM) | 5.5 (≈ 9.69 µM) | 35 (≈ 61.7 µM) | 0.7 (≈ 1.23 µM) | 0.6 (≈ 1.06 µM) | 0.6 (≈ 1.06 µM) | 13 (≈ 22.9 µM) |  | < 72 | < 7.2 |  |  |
| Cn1nnnc1SCC1=C(C(=O)O)N2C(=O)C(NC(=O)C(NC(=O)NC(N)=O)c3ccccc3)C2SC1 (stereo not shown) [Test Compound H] | 15 (≈ 27.4 µM) | 35 (≈ 63.9 µM) | 60 (≈ 110 µM) | 12 (≈ 21.9 µM) | 9.5 (≈ 17.3 µM) | 16 (≈ 29.2 µM) | > 200 | 4 (≈ 7.3 µM) | 2.5 (≈ 4.57 µM) | 1 (≈ 1.83 µM) | > 20 |  | < 72 | 0.7 |  |  |
| CNC(=O)NC(=O)NC(C(=O)NC1C(=O)N2C(C(=O)O)=C(CSc3nnnn3C)CSC12)c1ccccc1 (stereo not drawn) [Test Compound J, 7-[α-(3-methylcarbamoyl-1-ureido)-α-phenylacetamido)-3-(1-methyl-1H-tetrazole-5-ylthiomethyl)-3-cephem-4-carboxylic acid] | 4.3 (≈ 7.66 µM) | 10 (≈ 17.8 µM) | 22.3 (≈ 39.7 µM) | 4.3 (≈ 7.66 µM) | 4 (≈ 7.12 µM) | 7.5 (≈ 13.4 µM) | 130 (≈ 231 µM) | 3 (≈ 5.34 µM) | 2 (≈ 3.56 µM) | 5 (≈ 8.9 µM) | > 20 |  | 72 | 0.7 |  |  |
